Assay results from patent publication US20220030868A1, “FUNGICIDAL HALOMETHYL KETONES AND HYDRATES” (FMC CORPORATION, priority 2018, published 2022).
Marks after values point to notes of the source that are not given here.

Legend:
Phakopsora pachyrhizi = experiment: Test A: test suspension sprayed on soybean seedlings one day before inoculation with Phakopsora pachyrhizi spores (Asian soybean rust), visual disease rating; assay type: in vivo; details: 100 = 100% disease control, 0 = no control
How it was run: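 Compound dissolved in acetone (3% of final volume), then suspended at the stated ppm in 50/50 acetone/water with 250 ppm PEG400 surfactant; sprayed to run-off on soybean seedlings, inoculated with P. pachyrhizi spores next day. Held saturated at 22° C for 24 h, then 8 days at 22° C; visual rating as % disease control versus controls.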

Uncinula necator = experiment: Test C: test suspension sprayed on grape seedlings one day before inoculation with Uncinula necator spores (grape powdery mildew), disease rating; assay type: in vivo; details: 100 = 100% disease control; for pest or weed control at 50 ppm / Test C rating (disease control): 50 ppm test suspension
Description: General protocol for preparing test suspensions for Tests A-C: the test compounds were first dissolved in acetone in an amount equal to 3% of the final volume and then suspended at the desired concentration (in ppm) in acetone and purified water (50/50 mix by volume) containing 250 ppm of the surfactant PEG400 (polyhydric alcohol esters). The resulting test suspensions were then used in Tests A-C. The test solution was sprayed to the point of run-off on grape seedlings. The following day the seedlings were inoculated with a spore suspension of Uncinula necator (the causal agent of grape powdery mildew) and incubated in a growth chamber at 20° C. for 12 days, after which time disease ratings were made. Results for Tests A-C are given in Table A. In the Table, a rating of 100 indicates 100% disease control and a rating of 0 indicates no disease control (relative to the controls). An asterisk “*” or a double asterisk “**” next to the rating value indicates a 50 ppm or 10 ppm test suspension was used, respectively. A dash (-) indicates the compound was not tested.

[1] = tested on: Puccinia recondita f. sp. tritici; experiment: Test B: test suspension sprayed on wheat seedlings one day before inoculation with Puccinia recondita f. sp. tritici spores (wheat leaf rust), disease rating; assay type: in vivo; details: 100 = 100% disease control, 0 = no control
How it was run: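 Wheat seedlings were sprayed to run-off with compound suspended in 50/50 acetone/water containing 250 ppm PEG400, then inoculated with P. recondita f. sp. tritici spores the next day. Plants were held 24 h in saturated air at 20 °C, then 6 days in a growth chamber at 20 °C. Disease control was rated 0–100% relative to controls, with some entries run at 50 or 10 ppm.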

[2] = Phakopsora pachyrhizi, 10 ppm test suspension

Row | SMILES | pest or weed control at 10 ppm (Phakopsora pachyrhizi; [2]) | pest or weed control at 50 ppm (Uncinula necator; Erysiphe necator) | pest or weed control at 10 ppm ([1]; 10 ppm test suspension) | melting point | Test C rating (disease control) (Uncinula necator) | further results
1 | CCO/C(=C\Oc1ccc(Cn2cc(C(=O)OCc3ccccc3)cn2)cc1)C(F)(F)F [Compound 186, phenylmethyl 1-[[4-[[(1Z)-2-ethoxy-3,3,3-trifluoro-1-propen-1-yl]oxy]phenyl]methyl]-1H-pyrazole-4-carboxylate] | 100% | 100% | 0% | 63 to 67 °C | – | –
2 | O=C(NCC1CC1)c1csc(Cc2ccc(OCC3(C(F)(F)F)OCCO3)cc2)n1 [Compound 71, N-(cyclopropylmethyl)-2-[[4-[[2-(trifluoromethyl)-1,3-dioxolan-2-yl]methoxy]phenyl]-methyl]thiazole-4-carboxamide] | 100% | – | 96% | 88 to 92 °C | – | –
3 | CCOC(=O)c1cnn(Cc2ccc(O/C=C(\OCC)C(F)(F)F)cc2)c1 [Compound 64, ethyl 1-[[4-[[(1Z)-2-ethoxy-3,3,3-trifluoro-1-propen-1-yl]oxy]phenyl]methyl]-1H-pyrazole-4-carboxylate] | – | – | – | – | – | pest or weed control at 250 ppm (Phakopsora pachyrhizi; Phakopsora pachyrhizi, 250 ppm test suspension): 100%; pest or weed control at 10 ppm (Uncinula necator; Erysiphe necator, 10 ppm test suspension (double asterisk)): 100%; pest or weed control at 250 ppm ([1]; 250 ppm test suspension): 99%
4 | CCOC(=O)c1cnn(Cc2ccc(O/C=C(\OC(C)C)C(F)(F)F)cc2)c1 [compound 57] | – | – | – | – | 100* % | Test A rating (disease control) (Phakopsora pachyrhizi; 250 ppm test suspension): 100%; Test B rating (disease control) ([1]; 250 ppm test suspension): 0%
5 | N#CCCCOC(=O)c1cnn(Cc2ccc(OCC3(C(F)(F)F)OCCO3)cc2)c1 [Compound 171, 3-cyanopropyl 1-[[4-[[2-(trifluoromethyl)-1,3-dioxolan-2-yl]methoxy]phenyl]methyl]-1H-pyrazole-4-carboxylate] | 100% | 99% | 0% | – | – | –
6 | CCO/C(=C\Oc1ccc(Cn2cc(C(=O)OCC3CC3)cn2)cc1)C(F)(F)F [compound 220] | – | – | – | – | 100* % | Test A rating (disease control) (Phakopsora pachyrhizi; 10 ppm test suspension): 100%; Test B rating (disease control) ([1]; 10 ppm test suspension): 0%
